# Assay results as given in US5786344A, “Camptothecin drug combinations and methods with reduced side effects” (priority 1995, dated 1998).
# Assays:
# p-glycoprotein = target: T1, p-glycoprotein (Homo sapiens, UniProt P08183); test: in vitro; assay type: binding
# T1 construct: membrane vesicles from the multidrug resistant breast tumor cell line; endogenous in cells; host or cells: MCF-7/Adr (multidrug resistant human breast cancer cell line), membrane vesicles
# Description: FIG. 5. […]. Membrane vesicles from the multidrug resistant human breast cancer tumor cell line […] were used. […].
# [1] = human, in vivo; cited from earlier work
# T1 sequence (P08183 whole entry): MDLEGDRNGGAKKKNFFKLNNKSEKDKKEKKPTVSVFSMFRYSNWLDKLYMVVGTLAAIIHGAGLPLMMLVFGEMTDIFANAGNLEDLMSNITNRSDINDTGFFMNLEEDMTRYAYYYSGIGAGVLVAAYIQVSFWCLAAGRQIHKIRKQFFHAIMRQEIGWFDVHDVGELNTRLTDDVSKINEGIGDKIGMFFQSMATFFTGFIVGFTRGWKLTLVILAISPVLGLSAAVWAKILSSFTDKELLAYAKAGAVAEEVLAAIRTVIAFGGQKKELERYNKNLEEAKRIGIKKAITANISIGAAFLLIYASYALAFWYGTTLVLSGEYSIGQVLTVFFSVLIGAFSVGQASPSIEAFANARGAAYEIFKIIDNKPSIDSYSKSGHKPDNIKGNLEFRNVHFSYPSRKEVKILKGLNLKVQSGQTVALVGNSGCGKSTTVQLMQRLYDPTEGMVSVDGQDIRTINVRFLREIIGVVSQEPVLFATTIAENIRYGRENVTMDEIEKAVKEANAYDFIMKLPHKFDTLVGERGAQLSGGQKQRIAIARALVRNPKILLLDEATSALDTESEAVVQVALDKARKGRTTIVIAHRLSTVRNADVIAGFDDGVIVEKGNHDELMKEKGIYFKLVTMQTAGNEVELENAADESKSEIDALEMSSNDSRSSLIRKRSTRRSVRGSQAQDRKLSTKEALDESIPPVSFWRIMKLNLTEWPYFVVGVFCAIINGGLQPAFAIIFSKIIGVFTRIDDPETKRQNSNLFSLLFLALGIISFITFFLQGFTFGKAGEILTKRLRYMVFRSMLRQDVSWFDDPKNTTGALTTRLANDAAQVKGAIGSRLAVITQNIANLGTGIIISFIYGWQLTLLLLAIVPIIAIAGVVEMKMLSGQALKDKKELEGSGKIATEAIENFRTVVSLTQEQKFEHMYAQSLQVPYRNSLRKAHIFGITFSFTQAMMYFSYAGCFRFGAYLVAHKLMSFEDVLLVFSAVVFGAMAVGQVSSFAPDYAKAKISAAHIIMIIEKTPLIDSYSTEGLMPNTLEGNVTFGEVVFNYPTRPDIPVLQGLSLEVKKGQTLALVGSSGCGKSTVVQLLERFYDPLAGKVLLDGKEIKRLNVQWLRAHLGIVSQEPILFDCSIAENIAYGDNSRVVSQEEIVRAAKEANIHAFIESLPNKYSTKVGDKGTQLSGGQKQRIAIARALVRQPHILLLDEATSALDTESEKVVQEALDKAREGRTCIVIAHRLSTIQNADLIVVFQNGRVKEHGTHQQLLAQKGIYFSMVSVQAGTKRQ
smiles,measurement,setting,value
"CCc1c2c(nc3ccc(OC(=O)N4CCC(N5CCCCC5)CC4)cc13)-c1cc3c(c(=O)n1C2)COC(=O)[C@]3(O)CC [CPT-11, 7-ethyl-10-[4-(1-piperidino)-1-piperidino)carbonyloxycamptot hecin]",substrate of p-glycoprotein,p-glycoprotein,substrates of p-glycoprotein
same,inhibition at 10 µM,"p-glycoprotein; human, mcf-7/adr membrane vesicles",80%
same,DLT in Phase I studies in Japan and Europe/US,[1],either myelosuppression or diarrhea
